Experimental findings from patent publication US10975056B2 (GlaxoSmithKline Intellectual Property Development Limited, priority 2016, dated 2021) are described below.

One test deals with human full length DNMT1 (Homo sapiens (Human), UniProt P26358). Nature of the test: DNMT1 breaklight assay. In kind it is biochemical. The following applies: repeated experimental runs, read-out: average IC50 against DNMT1. As for the experimental part:
DNMT1 breaklight in vitro assays were conducted in a total volume of 50 μl in a standard 384 well format, using black non-binding surface microplates (Corning 3575). Five μl of human full length DNMT1 (produced internally), used at a final concentration of 40 nM, was added to 5 μl of substrate mixture containing final concentrations of 125 nM hemi methylated oligonucleotide (synthesized at ATD Bio; 5′-FAM-[…]5[…]5G5TAGAT-3′ where 5=methyl deoxycitidine) and 2 μM ultrapure SAM (Cisbio #62SAHZLD). Negative control wells used 5 μl of DNMT1 and 5 μl of oligonucleotide but 0 μM SAM. All reagents were made up in 1× assay buffer (20 mM Tris pH 6.8, 25 mM NaCl, 0.5 mM MgCl2, 0.01% Triton X100 and 1 mM DTT). The reaction was incubated at 26° C. for 45 min and then stopped with the addition of 40 μl detection reagent. Detection reagent, made up in 1× Gla assay buffer (20 mM Tris pH 8.0, 80 mM NaCl, 0.75 mM MgCl2, 0.01% Triton X100 and 1 mM DTT) has a final concentration of 100 μM SAH (Sigma #A9384) and 0.0008 units/μl Gla1 restriction endonuclease (Sibenzyme #E494). Following addition of the detection reagent the plate was incubated in the dark at room temperature for 5 hr. Fluorescence intensity was then measured on the PHERAstar FS (BMG Labtech) at Ex 485 nm and Em 520 nm, with a gain of 400 and an integration time of 100 ms.

A further test has as its target DNMT1 (Homo sapiens, UniProt P26358). Nature of the test: DNMT1 biochemical activity, breaklight assay and/or SPA assay. The following applies: binned activity in either the breaklight or the SPA assay; for IC50: read-out: DNMT1 BioChemical (pIC50 category) (converted).
Test [1] has as its system erythroid progenitor cells (EPCs). Description: Fetal hemoglobin (HbF) ELISA in day 7 erythroid progenitor cells.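 Note: for fetal hemoglobin induction normalized to vehicle-treated cells.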 It is filed as cell-based, human. The following applies: Homo sapiens, Erythroid progenitor cell, HbF ELISA, day 7 EPCs, 5 days; read-out: EPC ELISA (pEC50 category) (converted). A digest of the protocol: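 Read-out was OD450 from an HRP/TMB sandwich ELISA on lysates, normalized to DMSO-only control wells. Thawed day 7 EPCs from human marrow CD34+ cells had been treated for 5 days at 37° C with Compound A, 22 concentrations […].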
In general terms: In an ELISA, binding on a coated surface is turned into a signal by an enzyme label.

Another test deals with MV-4-11 AML cells. Nature of the test: MV-4-11 cell proliferation assay (CellTiter-Glo, 6 days). It is filed as cell-based. The following applies: Homo sapiens, MV4-11, 144 h; 6 days treatment; binning as pXC50; read-out: MV4-11 Anti-proliferative activity (EC50 category). As for the experimental part:
MV-4-11 Anti-Proliferative Activity (pEC50 Category)
Cell proliferation assay. Optimal cell seeding density was determined empirically for MV-4-11 AML cells by examining the growth of a wide range of seeding densities in a 384-well format to identify conditions that permitted maximal and continued proliferation for 6 days. MV-4-11 cells were plated in duplicate plates 24 hours before treatment with a 20-point two-fold dilution series of compound or 0.15% DMSO. Plates were incubated for 6 days at 37° C. in 5% CO2. Cells were then lysed with CellTiter-Glo (CTG) (Promega) and chemiluminescent signal was detected with an appropriate microplate reader. In addition, an untreated plate of cells was harvested at the time of compound addition (T0) to quantify the initial cell density. CTG values obtained after 6 days of treatment were expressed as a percent of the T0 value and plotted against compound concentration. Data were fit with a four parameter equation to generate a concentration response curve from which growth IC50 values were calculated.
In general terms: In ATP-based viability assays light output follows the ATP content of the culture.

pEC50, pIC50: −log10 of the molar value. Structures can show the parent of a compound that is named as a salt.

Sequence of DNMT1 (P26358 whole entry, looked up): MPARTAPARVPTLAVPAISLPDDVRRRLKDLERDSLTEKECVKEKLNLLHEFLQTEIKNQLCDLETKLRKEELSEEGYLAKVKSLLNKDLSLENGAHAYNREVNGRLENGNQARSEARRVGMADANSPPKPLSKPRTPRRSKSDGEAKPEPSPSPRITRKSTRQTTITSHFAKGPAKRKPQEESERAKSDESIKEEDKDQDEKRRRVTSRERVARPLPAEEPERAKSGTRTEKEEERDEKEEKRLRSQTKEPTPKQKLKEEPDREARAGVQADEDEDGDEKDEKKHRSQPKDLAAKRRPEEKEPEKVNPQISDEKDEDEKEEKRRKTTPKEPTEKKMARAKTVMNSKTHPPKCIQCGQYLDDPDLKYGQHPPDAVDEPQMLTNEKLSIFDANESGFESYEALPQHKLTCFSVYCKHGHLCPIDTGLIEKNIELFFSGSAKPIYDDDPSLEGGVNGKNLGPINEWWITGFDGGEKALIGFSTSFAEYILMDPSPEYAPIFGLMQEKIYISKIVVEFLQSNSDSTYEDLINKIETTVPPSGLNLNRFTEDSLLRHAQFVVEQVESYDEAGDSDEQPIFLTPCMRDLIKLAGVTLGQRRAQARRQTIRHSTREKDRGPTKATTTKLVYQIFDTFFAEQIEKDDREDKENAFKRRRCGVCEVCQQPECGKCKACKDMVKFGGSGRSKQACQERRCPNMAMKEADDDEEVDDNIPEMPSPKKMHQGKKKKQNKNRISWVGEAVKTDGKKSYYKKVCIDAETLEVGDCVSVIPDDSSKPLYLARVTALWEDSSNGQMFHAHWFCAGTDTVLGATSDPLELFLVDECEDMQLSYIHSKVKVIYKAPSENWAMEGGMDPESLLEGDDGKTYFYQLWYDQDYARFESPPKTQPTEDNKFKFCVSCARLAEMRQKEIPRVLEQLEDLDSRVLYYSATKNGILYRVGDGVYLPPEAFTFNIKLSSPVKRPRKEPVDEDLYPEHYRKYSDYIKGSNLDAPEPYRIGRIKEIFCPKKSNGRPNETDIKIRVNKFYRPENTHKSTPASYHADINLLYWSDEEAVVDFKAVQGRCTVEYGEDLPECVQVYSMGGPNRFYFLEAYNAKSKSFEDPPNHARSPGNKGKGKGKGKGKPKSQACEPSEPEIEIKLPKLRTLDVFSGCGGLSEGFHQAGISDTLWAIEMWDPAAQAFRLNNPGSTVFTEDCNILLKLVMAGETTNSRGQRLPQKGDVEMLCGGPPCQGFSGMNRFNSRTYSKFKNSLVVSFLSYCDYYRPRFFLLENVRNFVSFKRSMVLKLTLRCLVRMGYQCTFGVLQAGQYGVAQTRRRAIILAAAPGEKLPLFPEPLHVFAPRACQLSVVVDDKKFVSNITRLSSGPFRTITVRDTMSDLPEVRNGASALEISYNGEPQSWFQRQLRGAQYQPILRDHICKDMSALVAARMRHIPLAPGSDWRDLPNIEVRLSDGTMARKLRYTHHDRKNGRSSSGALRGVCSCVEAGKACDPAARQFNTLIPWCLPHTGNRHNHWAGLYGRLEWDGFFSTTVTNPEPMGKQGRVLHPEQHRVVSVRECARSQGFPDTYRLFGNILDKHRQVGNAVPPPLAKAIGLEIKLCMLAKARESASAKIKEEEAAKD
Sequence of human full length DNMT1 (P26358 whole entry): as the sequence (P26358 whole entry, looked up) above

Usually pIC50 stands for the IC50 on a negative log10 scale, so that one unit is a factor of ten. `CCc1c(C#N)c(SC(C(N)=O)c2ccccc2)nc(N2C[C@@H](C)N[C@@H](C)C2)c1C#N` (stereo partly drawn) [Example 61, 2-((3,5-Dicyano-6-((3S,5R)-3,5-dimethylpiperazin-1-yl)-4-ethylpyridin-2-yl)thio)-2-phenylacetamide]: the pIC50 at human full length DNMT1 is no less than 6.30. Also, at DNMT1, the “DNMT1 BioChemical (pIC50 category)” value was “D (Category D: ≥6.5)”. For the same molecule, the EC50 in test [1] was less than 316 nM.
For `N#Cc1c(SC(C(N)=O)c2ccccc2)nc(N2CCC(N)CC2)c(C#N)c1C1CC1` (centres unmarked) [Example 28, 2-((6-(4-aminopiperidin-1-yl)-3,5-dicyano-4-cyclopropylpyridin-2-yl)thio)-2-phenylacetamide] the same measures were no less than 6.30, “D (Category D: ≥6.5)” and less than 316 nM.
The pEC50 is −log10 of the EC50, conventionally taken in molar units. On to `N#Cc1c(SC(C(N)=O)c2ccncc2)nc(N2CC[C@H](O)C2)c(C#N)c1C1CC1` (stereo partly drawn) [Example 34, 2-((3,5-dicyano-4-cyclopropyl-6-((S)-3-hydroxypyrrolidin-1-yl)pyridin-2-yl)thio)-2-(pyridin-4-yl)acetamide], for which the IC50 at DNMT1 is 316 to 1000 nM. The EC50 in test [1] is 1000 to 31600 nM. For the same molecule, in the test on MV-4-11 AML cells, the pEC50 was 4.50 to 6.00.
For `CC1CN(c2nc(SC(C(N)=O)c3ccccc3)c(C#N)c(C3CC3)c2C#N)CC(C)O1` (centres unmarked) [Example 21, 2-((3,5-Dicyano-4-cyclopropyl-6-(2,6-dimethylmorpholino)pyridin-2-yl)thio)-2-phenylacetamide], the negative-log IC50 (pIC50) at human full length DNMT1 is less than 6.12. Besides, the IC50 at DNMT1 is 316 to 1000 nM. Further, the EC50 in test [1] is 1000 to 31600 nM.
`CCc1c(C#N)c(SC(C(N)=O)c2ccccc2)nc(N2CCC3(CNC3)C2)c1C#N` (centres unmarked) [Example 44, 2-((3,5-Dicyano-4-ethyl-6-(2,6-diazaspiro[3.4]octan-6-yl)pyridin-2-yl)thio)-2-phenylacetamide]: the “DNMT1 BioChemical (pIC50 category)” value at DNMT1 was “D (Category D: ≥6.5)”. Moreover, in test [1], the EC50 is 1000 to 31600 nM. Also, the pEC50 in the test on MV-4-11 AML cells is 4.50 to 6.00.
For `CCc1c(C#N)c(SC(C(N)=O)c2ccccc2)nc(N(C)CC(N)=O)c1C#N` (centres unmarked) [Example 145, 2-((6-((2-Amino-2-oxoethyl)(methyl)amino)-3,5-dicyano-4-ethylpyridin-2-yl)thio)-2-phenylacetamide] the same measures were “D (Category D: ≥6.5)”, less than 316 nM and greater than 6.50.
`CC1CN(c2nc(SC(C(N)=O)c3ccccc3)c(C#N)c(C3CC3)c2C#N)CC(C)N1` (centres unmarked) [Example 20]: the pIC50 at human full length DNMT1 is no less than 6.30. Besides, in test [1], the EC50 is less than 316 nM.
Turning to `N#Cc1c(SC(C(N)=O)c2ccccc2)nc(N2CCC(N3CCCC3)CC2)c(C#N)c1C1CC1` (centres unmarked) [Example 42, 2-((3,5-Dicyano-4-cyclopropyl-6-(4-(pyrrolidin-1-yl)piperidin-1-yl)pyridin-2-yl)thio)-2-phenylacetamide trifluoroacetate], the “DNMT1 BioChemical (pIC50 category)” value at DNMT1 is “D (Category D: ≥6.5)”. Also, the EC50 in test [1] is less than 316 nM. The negative-log EC50 (pEC50) in the test with MV-4-11 AML cells is 6.00 to 6.50.
As for `CCc1c(C#N)c(SC(C(N)=O)c2ccccc2)nc(N2CCC2)c1C#N` (centres unmarked) [Example 58, 2-[[6-(azetidin-1-yl)-3,5-dicyano-4-ethyl-2-pyridyl]sulfanyl]-2-phenyl-acetamide], on human full length DNMT1, the pIC50 was less than 6.12. The “DNMT1 BioChemical (pIC50 category)” value at DNMT1 is “D (Category D: ≥6.5)”. Besides, in test [1], the EC50 was 1000 to 31600 nM.
Turning to `N#Cc1c(SC(C(N)=O)c2ccccc2)nc(N2CCCNCC2)c(C#N)c1C1CC1` (centres unmarked) [Example 4, 2-((3,5-dicyano-4-cyclopropyl-6-(1,4-diazepan-1-yl)pyridin-2-yl)thio)-2-phenylacetamide], the “DNMT1 BioChemical (pIC50 category)” value on DNMT1 was “D (Category D: ≥6.5)”. The EC50 in test [1] is less than 316 nM. Moreover, the pEC50 with MV-4-11 AML cells was 4.50 to 6.00.
As for `CCc1c(C#N)c(SC(C(N)=O)c2ccccc2)nc(N(C)CCN2CCOCC2)c1C#N` (centres unmarked) [Example 11, 2-[(3,5-dicyano-4-ethyl-6-{methyl[2-(morpholin-4-yl)ethyl]amino}pyridin-2-yl)sulfanyl]-2-phenylacetamide], at human full length DNMT1, the pIC50 is 6.24. For the same molecule, on DNMT1, the IC50 is 316 to 1000 nM. Further, the EC50 in test [1] was 316 to 1000 nM.
As for `CCc1c(C#N)c(SC(C(N)=O)c2ccccc2)nc(N2CCN(CCCN)CC2)c1C#N` (centres unmarked) [Example 37, 2-((6-(4-(3-aminopropyl)piperazin-1-yl)-3,5-dicyano-4-ethylpyridin-2-yl)thio)-2-phenylacetamide], the pIC50 on human full length DNMT1 is no less than 6.30. For the same molecule, the IC50 at DNMT1 was 316 to 1000 nM. For the same molecule, in test [1], the EC50 was 1000 to 31600 nM.
Take `N#Cc1c(SC(C(N)=O)c2ccccc2)nc(N2CCCC(N)C2)c(C#N)c1C1CC1` (centres unmarked) [Example 25, 2-((6-(3-aminopiperidin-1-yl)-3,5-dicyano-4-cyclopropylpyridin-2-yl)thio)-2-phenylacetamide]: the pIC50 at human full length DNMT1 was no less than 6.30. Further, the “DNMT1 BioChemical (pIC50 category)” value on DNMT1 is “D (Category D: ≥6.5)”. In addition, the EC50 in test [1] is less than 316 nM.
With `CN1CCN(c2nc(SC(C(N)=O)c3ccccc3)c(C#N)c(C3CC3)c2C#N)CC1=O` (centres unmarked) [Example 22], on human full length DNMT1, the pIC50 was less than 6.12. The IC50 on DNMT1 is 316 to 1000 nM. Besides, the EC50 in test [1] is less than 316 nM.
Regarding `CCc1c(C#N)c(SC(C(N)=O)c2ccccc2)nc(N2CCCN(CCO)CC2)c1C#N` (centres unmarked) [Example 318, 2-((3,5-Dicyano-4-ethyl-6-(4-(2-hydroxyethyl)-1,4-diazepan-1-yl)pyridin-2-yl)thio)-2-phenylacetamide], at DNMT1, the “DNMT1 BioChemical (pIC50 category)” value is “D (Category D: ≥6.5)”. For the same molecule, the EC50 in test [1] was less than 316 nM. The pEC50 with MV-4-11 AML cells is 6.00 to 6.50.
As to `CCc1c(C#N)c(SC(C(N)=O)c2ccccc2)nc(N2CCC3(CCO3)C2)c1C#N` (centres unmarked) [Example 36, 2-((3,5-Dicyano-4-ethyl-6-(1-oxa-6-azaspiro[3.4]octan-6-yl)pyridin-2-yl)thio)-2-phenylacetamide], on human full length DNMT1, the pIC50 is less than 6.12. On DNMT1, the “DNMT1 BioChemical (pIC50 category)” value is “D (Category D: ≥6.5)”. Also, the EC50 in test [1] is 1000 to 31600 nM.
`CCc1c(C#N)c(SC(C(N)=O)c2ccccc2)nc(N2CCC3(CC2)CNC3)c1C#N` (centres unmarked) [Example 43, 2-((3,5-Dicyano-4-ethyl-6-(2,7-diazaspiro[3.5]nonan-7-yl)pyridin-2-yl)thio)-2-phenylacetamide]: the pIC50 on human full length DNMT1 is no less than 6.30. Besides, at DNMT1, the “DNMT1 BioChemical (pIC50 category)” value was “D (Category D: ≥6.5)”. In addition, the EC50 in test [1] is 316 to 1000 nM.
Regarding `CCCN1CCN(c2nc(SC(C(N)=O)c3ccccc3)c(C#N)c(CC)c2C#N)CC1` (centres unmarked) [Example 12, 2-{[3,5-dicyano-4-ethyl-6-(4-propylpiperazin-1-yl)pyridin-2-yl]sulfanyl}-2-phenylacetamide], the pIC50 on human full length DNMT1 is no less than 6.30. Further, on DNMT1, the IC50 is 316 to 1000 nM. For the same molecule, the EC50 in test [1] was 316 to 1000 nM.
Take `CCN1CCCN(c2nc(SC(C(N)=O)c3ccccc3)c(C#N)c(C3CC3)c2C#N)CC1` (centres unmarked) [Example 5, 2-{[3,5-dicyano-4-cyclopropyl-6-(4-ethyl-1,4-diazepan-1-yl)pyridin-2-yl]sulfanyl}-2-phenylacetamide]: on human full length DNMT1, the pIC50 was no less than 6.30. In addition, on DNMT1, the “DNMT1 BioChemical (pIC50 category)” value is on record as “D (Category D: ≥6.5)”. In test [1], the EC50 was less than 316 nM.
As to `N#Cc1c(SC(C(N)=O)c2ccccc2)nc(N2CCNC(=O)C2)c(C#N)c1C1CC1` (centres unmarked) [Example 15, 2-{[3,5-dicyano-4-cyclopropyl-6-(3-oxopiperazin-1-yl)pyridin-2-yl]sulfanyl}-2-phenylacetamide], the pIC50 on human full length DNMT1 is 6.36. For the same molecule, the IC50 at DNMT1 is 316 to 1000 nM. The EC50 in test [1] was 1000 to 31600 nM.
